# Results from ChEMBL document CHEMBL3425430, “α-Substituted 2-(3-fluoro-4-methylsulfonamidophenyl)acetamides as potent TRPV1 antagonists” (Bioorg Med Chem Lett, 2015).
# Experiments:
# Assay type in all cases: cell-based; call rule not given here
# [1] = biological target: T1, Transient receptor potential cation channel subfamily V member 1 (Homo sapiens, UniProt Q8NER1); test: Antagonist activity at human TRPV1 expressed in CHO cells assessed as inhibition of capsaicin-induced activation by FLIPR assay
# [2] = biological target: T1, Transient receptor potential cation channel subfamily V member 1; test: Antagonist activity at human TRPV1 expressed in CHO cells assessed as inhibition of 45 degC heat-induced activation by FLIPR assay
# [3] = biological target: T1, Transient receptor potential cation channel subfamily V member 1; test: Antagonist activity at human TRPV1 expressed in CHO cells assessed as inhibition of N-arachidonoyl dopamine-induced activation by FLIPR assay
# T1 sequence (Q8NER1 whole entry): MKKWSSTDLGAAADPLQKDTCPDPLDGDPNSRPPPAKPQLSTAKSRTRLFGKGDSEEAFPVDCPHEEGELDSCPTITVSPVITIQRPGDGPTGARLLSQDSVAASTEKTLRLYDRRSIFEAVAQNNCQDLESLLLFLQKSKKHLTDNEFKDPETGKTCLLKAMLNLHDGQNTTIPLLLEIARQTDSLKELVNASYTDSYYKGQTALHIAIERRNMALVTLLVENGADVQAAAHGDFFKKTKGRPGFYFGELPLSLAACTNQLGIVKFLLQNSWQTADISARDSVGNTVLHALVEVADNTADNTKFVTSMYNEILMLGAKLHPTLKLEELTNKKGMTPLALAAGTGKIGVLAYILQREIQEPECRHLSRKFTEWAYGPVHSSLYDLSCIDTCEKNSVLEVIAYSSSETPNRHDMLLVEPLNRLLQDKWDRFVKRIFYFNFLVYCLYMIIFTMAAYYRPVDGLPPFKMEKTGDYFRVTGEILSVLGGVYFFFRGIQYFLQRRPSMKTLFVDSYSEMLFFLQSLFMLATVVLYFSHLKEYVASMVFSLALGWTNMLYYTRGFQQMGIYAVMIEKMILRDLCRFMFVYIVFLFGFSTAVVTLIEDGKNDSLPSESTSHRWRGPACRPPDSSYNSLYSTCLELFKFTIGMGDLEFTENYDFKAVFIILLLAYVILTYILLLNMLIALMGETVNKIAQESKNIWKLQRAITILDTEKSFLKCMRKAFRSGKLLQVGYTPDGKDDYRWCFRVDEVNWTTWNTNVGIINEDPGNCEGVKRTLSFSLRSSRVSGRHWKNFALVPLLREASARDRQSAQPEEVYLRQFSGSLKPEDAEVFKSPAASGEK
SMILES,Ki ([1]; cho),Ki ([1]; read-out: Ki),also measured
CS(=O)(=O)Nc1ccc(C(C(=O)NCc2ccc(C(F)(F)F)nc2SC2CCCCC2)c2ccc(F)cc2)cc1F (configuration not stated),,37.6 nM,
CCC(C)(C(=O)NCc1ccc(C(F)(F)F)nc1SC1CCCCC1)c1ccc(NS(C)(=O)=O)c(F)c1 (configuration not stated),Active,,
CS(=O)(=O)Nc1ccc(C(C(=O)NCc2ccc(C(F)(F)F)nc2SC2CCCCC2)C2CCCCC2)cc1F (configuration not stated),Active,,
CS(=O)(=O)Nc1ccc(C(Cc2ccc(F)cc2)C(=O)NCc2ccc(C(F)(F)F)nc2SC2CCCCC2)cc1F (configuration not stated),Active,,
Cc1ccc(CC(C(=O)NCc2ccc(C(F)(F)F)nc2SC2CCCCC2)c2ccc(NS(C)(=O)=O)c(F)c2)cc1 (configuration not stated),,40.3 nM,
CS(=O)(=O)Nc1ccc(C2(C(=O)NCc3ccc(C(F)(F)F)nc3SC3CCCCC3)CCCC2)cc1F,Active,,
CC1CCN(c2nc(C(F)(F)F)ccc2CNC(=O)C2(c3ccc(NS(C)(=O)=O)c(F)c3)CCCC2)CC1,Active,,
Cc1ccccc1C(C(=O)NCc1ccc(C(F)(F)F)nc1SC1CCCCC1)c1ccc(NS(C)(=O)=O)c(F)c1 (configuration not stated),Active,,
Cc1cccc(C(C(=O)NCc2ccc(C(F)(F)F)nc2N2CCC(C)CC2)c2ccc(NS(C)(=O)=O)c(F)c2)c1 (configuration not stated),,,IC50 [2]: 36.2 nM; Ki [3]: 0.25 nM

# Second part, led by results:
Ki ([1]; cho),Ki ([1]; read-out: Ki),SMILES,also measured
Active,,Cc1ccc(CC(C(=O)NCc2ccc(C(F)(F)F)nc2N2CCC(C)CC2)c2ccc(NS(C)(=O)=O)c(F)c2)cc1 (configuration not stated),
,56.4 nM,Cc1cccc(C(C(=O)NCc2ccc(C(F)(F)F)nc2SC2CCCCC2)c2ccc(NS(C)(=O)=O)c(F)c2)c1 (configuration not stated),
,65.9 nM,CC1CCN(c2nc(C(F)(F)F)ccc2CNC(=O)C(Cc2ccccc2)c2ccc(NS(C)(=O)=O)c(F)c2)CC1 (configuration not stated),
,48.7 nM,CS(=O)(=O)Nc1ccc(C(C(=O)NCc2ccc(C(F)(F)F)nc2SC2CCCCC2)c2cccc(F)c2)cc1F (configuration not stated),
,7.5 nM,Cc1ccc(C(C(=O)NCc2ccc(C(F)(F)F)nc2SC2CCCCC2)c2ccc(NS(C)(=O)=O)c(F)c2)cc1 (configuration not stated),
,49.3 nM,CC1CCN(c2nc(C(F)(F)F)ccc2CNC(=O)C(Cc2ccc(F)cc2)c2ccc(NS(C)(=O)=O)c(F)c2)CC1 (configuration not stated),
Active,,CS(=O)(=O)Nc1ccc(C(Cc2ccccc2)C(=O)NCc2ccc(C(F)(F)F)nc2SC2CCCCC2)cc1F (configuration not stated),
